The results in this text go back to PMC6540241, “Targeting Tumor Markers with Antisense Peptides: An Example of Human Prostate Specific Antigen” (International Journal of Molecular Sciences, 2019).

First the molecules themselves.
B1: N-terminal biotin antisense peptide Biotin-AVRDKVG (peptide)
peptide: Biotin-AVRDKVG
modifications: not fully specified
notes: Some sentences print AKRDKVG; also called biotinylated antisense peptide AVRDKVG; antisense paratope Biotin-AVRDKVG; source: synthetic peptide, bought: GenScript (>97% purity)
B2: Human prostate specific antigen (hPSA) peptide 53–59: RHSLFHP (peptide)
peptide: RHSLFHP
notes: human prostate specific antigen (hPSA), residues 53-59 (R53-P59); 77-83 of the precursor P07288; In the magnetic particle enzyme immunoassay the peptide was coupled by EDC to SPHERO carboxyl magnetic particles; also called sense peptide; source: synthetic peptide, bought: GenScript (>97% purity)

Where no end group is shown, it is not given here. The star is where a group is joined. Biotin = O=C1N[C@H]2[C@H](CS[C@H]2CCCCC(=O)*)N1

For assay [1], the target named is T1, hPSA peptide RHSLFHP coated onto carboxyl magnetic particles (Homo sapiens, UniProt P07288).
T1 construct: Human prostate specific antigen (hPSA) peptide 53–59: RHSLFHP; purchased GenScript; host or cells: synthetic peptide
In words: Magnetic particle enzyme immunoassay (MPEIA). The format is binding. As to conditions: mismatched peptide, negative control. The method, then: Briefly, the reaction mixture was composed of 2 mL sodium acetate buffer (0.01M, pH 5.0), 2 mg of peptide and 2 mL of 2.5% w/v carboxyl magnetic particles―1.14 μm, 20 mg of EDC. Reactions proceeded in glass reaction tubes overnight at room temperature in a rotary mixer. Tubes were centrifuged at 3000× g for 15 min, supernatant was carefully discarded, and the pellets were washed twice in 4 mL isotonic buffered saline (IBS), followed by centrifugation. After washing, coated magnetic particles were resuspended in 4 mL of PBS containing 0.05% Tween 20.
Two folds serial dilutions (1.09–70 µM) of biotinylated antisense peptide AVRDKVG were made in 96-well microtiter plates to generate standard curves (Figure 4b). Mismatched peptide Biotin-EHFRW was used as a negative control (Figure 4b). A suspension (1.25% w/v) of carboxyl magnetic particles, coated with sense peptide RHSLFHP, was added to each well (40 µL/well). The plates were incubated at room temperature for 30 min and washed with PBS-Tween 20 five times. The washing solution was removed each time using the Spherotech UltraMag Separator (Sperotech, Inc., Lake Forest, IL, USA).
A blocking solution (PBS with 1% BSA) was added to the wells and incubated at room temperature for one hour. […] The absorbances were read at 450 nm on a multiwell plate reader. The data were analyzed using GraphPad Prism software version 5.

The test system of assay [2] is human prostate specific antigen (hPSA) in prostate cancer tissue. The assay is described as follows: Immunohistochemical staining of hPSA, protocol 2 (biotinylated peptide instead of primary antibody). As to conditions: mismatched peptide, negative control. The protocol:
Immunohistochemistry was performed on deparafinized slides (xylen and a series of ethanol solutions) at room temperature (20–25 °C). The phosphate-buffered saline (PBS) was used, with a pH of 7.2 and containing disodium hydrogen phosphate, sodium chloride, potassium chloride and potassium dihydrogen phosphate was used. PBS stock solution: 4 g KH2PO4, 23 g Na2HPO4, 4 g KCl, 160 g NaCl and 810 mL distilled water. Before staining, 100 mL of stock solution was diluted with 1900 mL of distilled water.
All slides (from seven patients) were selected from the repository of prostate cancer tissue, with diagnosis confirmed by consensus of two independent pathologists. The two pathologists who examined the slides stained with antisense peptides were unconnected with the pathologists who established the initial diagnosis.
Each of the two immunohistochemistry protocols for PSA staining consisted of six steps. Steps 1, 4, 5 and 6 of protocol 1 and protocol 2 were identical, while steps 2 and 3 differed (Figure 5 and Figure 6). For this study, the slides were kept in the dark at room temperature (20–25 °C), to prevent fading as a result of exposure to strong light. They were analyzed using an Olympus BX41 microscope, with an Olympus DP71 camera set to three levels of magnification: less than 40×, 100×, and 500×.
The staining protocol 2 was a modified IHC protocol 1, as follows: In step 2 we used antisense peptide Biotin-AVRDKVG, instead of the primary monoclonal mouse anti-human PSA antibody, in step 3 we used rabbit polyclonal antibody to biotin conjugated to HRP, instead of HRP labeled polymer conjugated to goat anti-mouse immunoglobulins (Figure 5), with peptide Biotin-EHFRW as a negative control (Figure 7). Otherwise, the procedures and chemicals were identical. Quality control for the PSA staining was investigated using NordiQC scoring criteria: 0—Poor; 1—Borderline; 2—Good; 3—Optimal. The scale is presented in Table A2, and the final results given in Table 4 are expressed as a sum of scores.
IHC staining―protocol 2: • The specimen was covered with peroxidase block, i.e., 100 μL of 0.03% hydrogen peroxide containing sodium azide (Dako, Glostrup, Denmark), and incubated for four minutes. Following this, the specimen was gently rinsed with phosphate buffered saline (PBS), and placed in a fresh buffer bath. • Biotinylated antisense peptide AVRDKVG (GenScript, Piscataway, NJ, USA) directed to PSA epitope 53–59 (RHSLFHP) was used to cover the specimen. Five milligrams of Biotin-AVRDKVG antisense was diluted in 2.5 mL PBS. Dilutions 1:10, 1:50, 1:100, 1:200 and 1:500 were applied to cover the specimen. A 100 μL volume was used per section. After 30 min of incubation, each specimen was gently rinsed with PBS and placed in a fresh buffer bath. • Anti-biotin antibody conjugated to HRP (ab34645, Abcam, Cambridge, UK) was applied to cover the specimen. Of the antibody 10 mg/2 mL was diluted 1:100. One hundred microliters of the diluted antibody was applied to cover each specimen, followed by a 30 min incubation. After the incubation, the specimen was gently rinsed with PBS and placed in a fresh buffer bath. • The specimen was covered with 100 μL of AEC + substrate-chromogen solution for 10 min, i.e., 3-amino-9-ethylcarbazole containing hydrogen peroxide, stabilizers, enhancers and an anti-microbial agent (Dako, Glostrup, Denmark). After that period the specimen was again rinsed with PBS. • The slides were immersed in a bath of aqueous hematoxylin (Mayerr’s hematoxylin), and rinsed gently in a distilled water bath. The slides were dipped 10 times into a bath of ammonia (0.037 mol/L), and then rinsed in a bath of distilled water for four minutes. • The specimens were mounted and coverslipped with non-aqueous permanent mounting medium Ultramount.

Assay [3] deals with B2. The assay is described as follows: magnetic particle enzyme immunoassay (MPEIA); RHSLFHP coupled by EDC to SPHERO carboxyl magnetic particles; biotinylated peptide in two-fold dilutions 1.09–70 µM, room temperature, 30 min, PBS-Tween 20 washes; detected with streptavidin-peroxidase polymer and OPD, absorbance at 450 nm. As to conditions: both partners purified.
In assay [4] the target is B1. In words: MST; Biotin-AVRDKVG labelled with DY-495 kept constant; unlabelled RHSLFHP titrated 0.0854 µM to 2.8 mM in 10 mM phosphate buffer; Monolith NT.115, standard capillaries. As to conditions: both partners purified.

For the molecule “Biotin-EHFRW: N-terminal biotin mismatched peptide, negative control [reference compound]”, in assay [1], the “binding to hPSA epitope RHSLFHP” value was “does not bind”.

For the molecule “Biotin-EHFRW [N-terminal biotin mismatched peptide, negative control, reference compound]”, the “staining of hPSA of the prostate tissue” value in assay [2] is given as “did not stain”. In assay [3], B1 displayed a Kd of 24.6 µM.

In the case of B2, the Kd in assay [4] was 24.3 µM.
